Reference: US4210638A, “Antiviral composition and method of treating virus diseases” (PCR, Inc., priority 1978, dated 1980)

How the values were obtained:
vaccinia = conditions: Shugar 1974; cited from earlier work
vesicular stomatitis = conditions: Shugar 1974; cited from earlier work
Herpes simplex = conditions: Shugar 1974; cited from earlier work
[1] = target: T1, HSV-2 induced pyrimidine deoxyribonucleoside kinase (Human herpesvirus 2 strain HG52, UniProt P89446); test: Phosphorylation by HSV-2 induced pyrimidine deoxyribonucleoside kinase; assay type: biochemical; conditions: for nmoles phosphorylated/60min.: solutions a, c, d adjusted to the same O.D.
T1 construct: preparation not described in the excerpts
T1 sequence (P89446 whole entry): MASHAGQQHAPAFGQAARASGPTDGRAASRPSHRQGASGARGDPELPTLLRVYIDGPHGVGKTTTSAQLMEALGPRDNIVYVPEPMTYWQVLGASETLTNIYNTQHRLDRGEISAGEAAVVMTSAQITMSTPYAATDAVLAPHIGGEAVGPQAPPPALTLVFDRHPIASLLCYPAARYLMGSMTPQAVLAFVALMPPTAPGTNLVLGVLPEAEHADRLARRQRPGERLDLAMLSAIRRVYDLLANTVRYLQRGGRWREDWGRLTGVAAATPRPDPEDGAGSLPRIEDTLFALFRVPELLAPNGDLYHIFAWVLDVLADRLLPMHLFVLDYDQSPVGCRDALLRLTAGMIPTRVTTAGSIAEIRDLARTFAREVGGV
Text: The following spots were eluted into H2 O and scanned from 225 to 350 nm: (a) standard, (b) F3 methyl dC standard, […] spot after cytidine deaminase treatment of F3 dT and […] spot after cytidine deaminase treatment of F3 methyl dC. The u.v. absorption profile of F3 dT derived from deamination of F3 methyl dC is identical to that obtained from authentic F3 dT.
Solutions a, c, and d, above, were adjusted to the same O. D. and used as substrates for HSV-2 induced pyrimidine deoxyribonucleoside kinase. Results:
Stock solutions of F3 dT and F3 methyl dC were made up and adjusted to the same concentration as the F3 dT and F3 methyl dC purified chromatographically (solutions a and b, respectively). Usually, F3 methyl dC is phosphorylated 1/6 of the extent that F3 dT is phosphorylated. […] This experiment was performed twice. Results:
Values for chromatographically purified samples are probably lower due to impurities arising from non-acid washed paper.

uninfected cells = conditions: cited from earlier work
[2] = in vivo; cited from earlier work
[3] = Incubation with HNO2 (pH 4.5) at room temperature; assay type: physicochemical
Description: (§1) The results of incubation with HNO2 (pH 4.5) at room temperature were identical to those obtained above.

[4] = Incubation with acetate buffer (pH 4.5); assay type: physicochemical; conditions: 9 hours
Description: as §1

HEp-2 cells = test: Cytotoxicity vs HEp-2 cells (colony formation, % survival)
cytidine deaminase = test: Incubation with crude cytidine deaminase extract of HEP-2 cells (deamination); assay type: in vitro ADME, human; conditions: crude HEP-2 cytidine deaminase extract; Whatman 3MM chromatography
[5] = test system: HSV infections of the eye; conditions: cited from earlier work; for antiviral activity against HSV infections of the eye: Kaufman 1962 / Heidelberger
man = conditions: extremely high concentrations; cited from earlier work
HSV-2 = test: Antiviral activity vs HSV-2 in HEp-2 cells (plaque assay in BHK cells); assay type: cell-based; conditions: 100 or 500 μg/ml
Description: The culture medium containing the nucleoside analogs at varying concentrations are added to the infected cultures. In the case of HEp-2 cells which contain high deaminase levels, H4 U is incorporated into the medium. At 48 hours, virus is harvested from the cultures by freezing and thawing. The virus produced from each culture is titred by plaque assay in BHK cells. By using this protocol the antiviral effectiveness of F3 methyl dC can be compared directly with the effectiveness of other antiviral agents. Furthermore, by including H4 U in the medium, the effectiveness of F3 methyl dC can be determined without deamination at the nucleoside level.

human encephalitis = conditions: in vivo; cited from earlier work
animal systems = conditions: usually must be administered very soon after infection; cited from earlier work

For `CCc1cn([C@H]2C[C@H](O)[C@@H](CO)O2)c(=O)nc1N` [5-ethyl-2'-deoxycytidine], the activity against vaccinia (vaccinia) is listed as “no activity”, the “activity against vesicular stomatitis” value (vesicular stomatitis) is listed as “no activity” and the “antiviral activity against HSV infected cells” value (Herpes simplex) is listed as “only a low antiviral activity”.
With `O=c1[nH]c(=O)n([C@H]2C[C@H](O)[C@@H](CO)O2)cc1C(F)(F)F` [F3 dT, 5-trifluoromethyl-2'-deoxyuridine] the “nmoles phosphorylated/4 hrs” value ([1]; chromatographically purified, value in parentheses (experiment performed twice)) was 0.19 nmoles/4 hrs, the “nmoles phosphorylated/4 hrs” value ([1]; chromatographically purified, value outside parentheses) was 0.16 nmoles/4 hrs and the “extent of phosphorylation compared with F3 dT” value ([1]; product of cytidine deaminase treatment of F3 methyl dC (d)) was “to the same extent as F3 dT”. For the same compound, the “nmoles phosphorylated/60min.” value ([1]; listed as a) was 0.07 nmoles/60min, the “nmoles phosphorylated/60min.” value ([1]; listed as c) was 0.08 nmoles/60min and the “nmoles phosphorylated/60min.” value ([1]; listed as d) was 0.05 nmoles/60min. The “nmoles phosphorylated/4 hrs” value ([1]; standard solutions, value in parentheses (experiment performed twice)) was 0.57 nmoles/4 hrs, the “nmoles phosphorylated/4 hrs” value ([1]; standard solutions, value outside parentheses) was 0.48 nmoles/4 hrs and the “toxicity towards uninfected cells” value (uninfected cells) was “exhibit toxicity towards uninfected cells”. The “catabolism in the body” value [2] was “rapid catabolism”, the “change on incubation with HNO2” value [3] was “remained unaltered” and the “modification in acetate buffer” value [4] was “did not lead to modification”. The “cytotoxicity at concentrations with antiviral activity” value (HEp-2 cells; ±H4 U) was “extremely cytotoxic”, the “chromatographic change on incubation with cytidine deaminase” value (cytidine deaminase) was “remained unchanged chromatographically” and the “antiviral activity against HSV infections of the eye” value [5] was “does exhibit antiviral activity against infections of the eye”.
For `O=C1NC(O)CCN1[C@@H]1O[C@H](CO)[C@@H](O)[C@H]1O` (stereo partly drawn) [H4 U, tetrahydrouridine, reference compound], the toxicity in man (man) is given as “not toxic in man at extremely high concentrations”, the “cytotoxic activity of H4 U” value (HEp-2 cells; 100 or 500 μg/ml) is given as “does not display any cytotoxic activity” and the “antiviral activity of H4 U” value (HSV-2) is given as “does not display any antiviral activity”.
In the case of `O=c1[nH]c(=O)n([C@H]2C[C@H](O)[C@@H](CO)O2)cc1I` [IdU, 5-iodo-2'-deoxyuridine], the “toxicity towards uninfected cells” value (uninfected cells) is listed as “exhibit toxicity towards uninfected cells”, the “catabolism in the body” value [2] is listed as “rapid catabolism” and the “antiviral activity against HSV infections of the eye” value [5] is listed as “exhibits antiviral activity against HSV infections of the eye”. The “effectiveness against Herpes Keratitis compared with F3 dT” value ([5]; in vivo) was “less effective than F3 dT” and the “effectiveness in human Herpes encephalitis” value (human encephalitis) was “ineffectiveness”.
For `O=C(O)CP(=O)(O)O` [Phosphonacetic acid], the “efficacy in animal systems” value (animal systems) is listed as “effective in animal systems”.
